{
  "source": "patent US12507720B2",
  "about": "“Use of anthocyanin-anionic polysaccharide complex for preventing or treating influenza virus A infection” (JBKLAB CO., LTD., priority 2019, dated 2025)",
  "assay_type": "physicochemical",
  "details": "pH 3",
  "protocol": "The amount of anthocyanin was confirmed using a spectrophotometer to confirm the stability of the complex prepared in Example 1 over time. 40 ml of the anthocyanin-alginic acid complex was centrifuged at 13000 rpm for 30 minutes, and the precipitate was dispersed in PBS (pH 3 or pH 7.4). In addition, anthocyanin was prepared by dissolving thereof in PBS (pH 3 or pH 7.4). The absorbance of the complex and anthocyanin dispersed in PBS (pH 3 or pH 7.4) was measured with a spectrophotometer at each wavelength band of 513 nm or 520 nm, respectively, and the change in the absorbance value of anthocyanin was observed.",
  "data": [
    {"substance": "anthocyanin", "values": [
      {"measurement": "stability (in words)", "value": "stable"}
    ]}
  ]
}
